Where “and” joins values, the source holds several entries; their conditions need not be identical. Identical values can stand only once.
Experiments:
[1] = Pharmacokinetics in blood of C57BL/6 mice, 1st trial (single IV bolus, LC-MS, two-compartment model); assay type: in vivo; conditions: individual mice, Tun 10 mg/mL 30uL IV
Protocol: Eighty, 40 male (M) and 40 female (F), C57BL/6 mice were enrolled in the study on Day 0. Body weights, clinical observations, and digital caliper measurements were recorded. Eight (4M/4F) animals per treatment received a single 30uL intravenous bolus dose of the experimental samples (or control DMSO carrier) via the lateral tail vein, as shown in Fig 2A and S1 Table. […] After the first dosing, blood draws for the PK study were at 8-time points (5 min, 15 min, 30 min, 1 h, 2 h, 4 h, 6 h, 24 h). The mice were subdivided into 2 groups of 4 (2M/2F) mice each, with each subgroup having ~50 ul of blood collected via retro-orbital bleed for 4-time points (subgroup 1: 5 min, 30 min, 2h, and 6 h; subgroup 2: 15 min, 1h, 4h, and 24 h). In life, a collection of 50 μL of blood was diluted with 450 μL of ethanol and evaporated to dryness on a Speedvac evaporator under sterile conditions. The dried residues were stored at −80 °C and were shipped on dry ice to NCAUR, Peoria, for analysis. At the end of the study (24 h), the animals were euthanized, and terminal blood samples from all mice (100 µL) were collected via cardiac puncture, diluted with 900 μL of ethanol, and evaporated to dryness on a Speedvac. The dried residues are stored at −80 °C until ready for analysis.
For the comparative PK of tunicamycins in blood, drug concentrations were measured by LC–MS/MS as previously described. Different compartmental models (0, 1, or 2 compartments) and weighting options were assessed for goodness of fit by visual inspection of the observed versus predicted plots, weighted residual versus observed and predicted plots, and comparison of Akaike Information Criterion (AICc) values. A two-compartment IV bolus model was determined to describe the data best (S1 Fig).
Pharmacokinetic parameters were calculated by two-compartmental using a linear regression analysis and residuals method to calculate using Microsoft Excel 2024 using standard equations (Atkinson; 2007; Miyamato et al., 2019). Details about the PK equations to calculate drug concentrations and PK parameters are listed in the S1 Appendix.

[2] = 2nd mouse trial: co-administration with oxacillin, drug in blood, liver, heart and brain; conditions: 24 h after 30uL IV of Tun 6.7 mg/mL + oxacillin 6.7 mg/mL, individual mice
Protocol: In the second trial, which was a drug co-localization study, forty (20 male and 20 female) C57BL/6 mice were enrolled on Study Day 0 and were dosed according to the experimental design shown in Fig 2A and S3 Table. Body weights and clinical observations were recorded as before. […] Blood samples were taken (50 μL) 5 min, 15 min, 30 min, 1h, 2h, 4h, 6h, and 24h post-injection. At the end of the study (24 h post dose) the mice were euthanized by CO2 asphyxiation, and liver, brain and heart were collected. The organs were homogenized in ethanol, then filtered to remove solids, and the ethanolic filtrate dried by Speedvac evaporation. The dried residues were stored at −80 °C and shipped on dry ice. Drug concentrations in tissue were measured by LC–MS/MS as previously described.

[3] = in vivo; cited from earlier work
[4] = tested on: sheep; design: method as in earlier work; conditions: cumulative from multiple smaller doses; cited from earlier work

Compound	N-acyl variants in blood (1st trial) ([1]; time 0:05:00 (5 min))	N-acyl variants in blood (1st trial) ([1]; time 0:15:00 (15 min))	N-acyl variants in blood (1st trial) ([1]; time 0:30:00 (30 min))	N-acyl variants in blood (1st trial) ([1]; time 1:00:00 (1 h))	N-acyl variants in blood (1st trial) ([1]; time 2:00:00 (2 h))	N-acyl variants in blood (1st trial) ([1]; time 4:00:00 (4 h))	N-acyl variants in blood (1st trial) ([1]; time 6:00:00 (6 h))	N-acyl variants in blood (1st trial) ([1]; time 24:00:00 (24 h))	N-acyl variants in brain (2nd trial) [2]	N-acyl variants in heart (2nd trial) [2]	N-acyl variants in liver (2nd trial) [2]	estimated t1/2 [3]	oral lethal dose [4]
CCC(C)CCCCCCCC/C=C/C(=O)N[C@H]1[C@H](O[C@H]2O[C@H](CO)[C@@H](O)[C@H](O)[C@H]2NC(C)=O)O[C@H](C[C@@H](O)[C@H]2O[C@@H](n3ccc(=O)[nH]c3=O)[C@H](O)[C@@H]2O)[C@H](O)[C@@H]1O (some centres unmarked) [C15a]	0.654 µg/mL and 0.6 µg/mL and 0 µg/mL	0 ug/mL (3×) and 0.45 ug/mL	0 µg/mL	0 µg/mL	0 µg/mL	0 µg/mL	0 µg/mL	0 µg/mL	0 µg/mL	0 µg/mL	0 µg/mL and 0.03337 µg/mL and 0.02831 µg/mL		
CC(=O)N[C@H]1[C@@H](O[C@@H]2O[C@H](C[C@@H](O)[C@H]3O[C@@H](n4ccc(=O)[nH]c4=O)[C@H](O)[C@@H]3O)[C@H](O)[C@H](O)[C@H]2NC(=O)/C=C/CCCCCCCCCC(C)C)O[C@H](CO)[C@@H](O)[C@@H]1O [C15i]	4.16 µg/mL and 5.09 µg/mL and 2.96 µg/mL	3.05 µg/mL and 3.14 µg/mL and 1.44 µg/mL and 3.28 µg/mL	0 ug/mL (2×) and 0.88 ug/mL and 1.74 ug/mL	0 ug/mL (2×) and 0.77 ug/mL and 1.66 ug/mL	0 µg/mL	0 µg/mL	0 µg/mL	0 µg/mL	0 µg/mL	0 µg/mL	0 µg/mL and 0.05015 µg/mL and 0.3411 µg/mL and 0.2948 µg/mL		
CCCCCCCCCCCCCC/C=C/C(=O)N[C@H]1[C@H](O[C@H]2O[C@H](CO)[C@@H](O)[C@H](O)[C@H]2NC(C)=O)O[C@H](C[C@@H](O)[C@H]2O[C@@H](n3ccc(=O)[nH]c3=O)[C@H](O)[C@@H]2O)[C@H](O)[C@@H]1O [C17s]	0 µg/mL	0 µg/mL	0 µg/mL	0 µg/mL	0 µg/mL	0 µg/mL	0 µg/mL	0 µg/mL	0 µg/mL	0 µg/mL	0 µg/mL and 0.1695 µg/mL and 0.1754 µg/mL		
Cc1onc(-c2ccccc2)c1C(=O)N[C@@H]1C(=O)N2[C@@H]1SC(C)(C)[C@@H]2C(=O)O [oxacillin]												7.8 min	
corynetoxins [Cnx]													3.2 to 5.6 mg/kg
